Experimental data as given in publication PMC5402262, “Synthesis and anti-obesity effects in vivo of Crotadihydrofuran C as a novel PPARγ antagonist from Crotalaria albida” (Scientific Reports, 2017).
pKi: −log10 of the molar value.

Target: T1, PPARγ (Homo sapiens, UniProt P37231)
T1 construct: gene PPARG
T1 sequence (P37231 231-505 limits assumed): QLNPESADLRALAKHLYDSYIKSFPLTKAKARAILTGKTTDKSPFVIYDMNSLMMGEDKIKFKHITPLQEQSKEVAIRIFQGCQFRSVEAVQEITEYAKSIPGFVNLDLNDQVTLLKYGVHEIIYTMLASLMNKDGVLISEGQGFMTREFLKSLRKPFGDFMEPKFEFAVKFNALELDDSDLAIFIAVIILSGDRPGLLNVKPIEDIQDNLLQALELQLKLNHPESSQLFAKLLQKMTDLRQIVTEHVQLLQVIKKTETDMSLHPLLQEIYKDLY
Test: LanthaScreen TR-FRET competitive binding assay

C=C(C)[C@@H]1Cc2c(ccc(-c3coc4cc(O)ccc4c3=O)c2O)O1 [compound 17, 7, 2′-Dihydroxy-2′′ S-isopropenyl dihydrofuran [6′′, 7′′ : 3′, 4′]-isoflavone]
pKi: 5.80
